Measurements reported in US8501239B2 (priority 2005, dated 2013).
Where two headings read alike, the source gives them in different places.

What was measured:
contusion SCI = assay: Tissue sparing following moderate contusion SCI, T10 lesion epicenter; format: in vivo; settings: 5 mg/kg, 15 mins post-injury, 48 hours after SCI, p<0.05
Experimental: Bar graphs representing the extent of tissue sparing measured through cross-sections of the T10 segment injury epicenters 48 hours after a moderate (150 kydn) contusion SCI. […] Bars represent group means, SEM (n=5-6/group). Using an unpaired t-test, * indicates p<0.05 compared to vehicle-treated groups.

[1] = test system: Adult Sprague-Dawley rats; format: in vivo, rat
rat brain = settings: model of focal ischemia-reperfusion injury in the rat brain; cited from earlier work
humans = settings: cited from earlier work

Row | Compound | cross-sectional area of tissue preservation at lesion epicenter (contusion SCI; vs vehicle (DMSO)) | percentage of tissue sparing at the lesion epicenters (contusion SCI; vs vehicle controls) | tissue sparing compared to vehicle-treated animals ([1]; rat, in vivo) | reduction of infarct volume (rat brain) | weight loss as a function of dose (humans; FIG. 1 left panel, regardless of diet or lifestyle) | metabolism as a function of dosage (humans; FIG. 1 right panel) | tissue sparing compared to vehicle-treated animals ([1]; TBI rats, dosed 5 min post-injury (5 mg/kg 2,4-DNP, 2.5 mg/kg FCCP, 6.2 mg/kg), 15 days post-injury, p<0.01)
1 | O=[N+]([O-])c1ccc(O)c([N+](=O)[O-])c1 [2,4-DNP, 2,4-dinitrophenol] | significantly greater cross-sectional area of tissue preservation | significantly higher percentage of tissue sparing | significantly increased tissue sparing | approximately 40% | very linear increase in weigh loss | linear increase in metabolism | –
2 | N#CC(C#N)=NNc1ccc(OC(F)(F)F)cc1 [FCCP, carbonyl cyanide 4-trifluoromethoxy phenylhydrazone] | – | – | – | – | – | – | significantly increased tissue sparing
